Assay [1] concerns the target T1, BTK (Homo sapiens (Human), UniProt Q06187). In words: In Vitro BTK Kinase Assay: BTK-POLYGAT-LS ASSAY. The following applies: ATP 10 μM, polyGAT 100 nM, BTK 0.25 nM, 30 minutes. The class given is biochemical. As for the experimental part:
The purpose of the BTK in vitro assay is to determine compound potency against BTK through the measurement of IC50. […] The BTK kinase reaction was done in a black 96 well plate (costar 3694). For a typical assay, a 24 μL aliquot of a ATP/peptide master mix (final concentration; ATP 10 μM, polyGAT 100 nM) in kinase buffer (10 mM Tris-HCl pH 7.5, 10 mM MgCl2, 200 μM […], 5 mM DTT, 0.01% Triton X-100, and 0.2 mg/ml casein) is added to each well. Next, […] of a 4-fold, 40× compound titration in 100% DMSO solvent is added, followed by adding 15 μL of BTK enzyme mix in 1× kinase buffer (with a final concentration of 0.25 nM). The assay is incubated for 30 minutes before being stopped with […] of a 50 mM EDTA solution. Aliquots (5 μL) of the kinase reaction are transferred to a low volume white 384 well plate (Coming 3674), and […] of a 2× detection buffer (Invitrogen PV3574, with 4 nM Tb-PY20 antibody, Invitrogen PV3552) is added. The plate is covered and incubated for 45 minutes at room temperature. Time resolved fluorescence (TRF) on Molecular Devices M5 (332 nm excitation; 488 nm emission; 518 nm fluorescein emission) is measured.

The target in assay [2] is T1, BTK. In words: In Vitro PD Assay in Human Whole Blood (pBTK assay). Format: cell-based. The settings on record: 37° C. for 30 min, 50% inhibition of ECL signal. As for the experimental part: Human heparinized venous blood was purchased from Bioreclamation, Inc. or SeraCare Life Sciences and shipped overnight. Whole blood was aliquoted into 96-well plate and “spiked” with serial dilutions of test compound in DMSO or with DMSO without drug. The final concentration of DMSO in all wells was 0.1%. The plate was incubated at 37° C. for 30 min. Lysis buffer containing protease and phosphatase inhibitors was added to the drug-containing samples and one of the DMSO-only samples (+PPi, high control), while lysis buffer containing protease inhibitors was added to the other DMSO-only samples (−PPi, low control). All of the lysed whole blood samples were subjected to the total BTK capture and phosphotyrosine detection method described in US20160311802, incorporated herein by reference.

Molecules are shown by their SMILES. Where only a bound is given, the exact number is not on record here.

T1 sequence (Q06187 whole entry): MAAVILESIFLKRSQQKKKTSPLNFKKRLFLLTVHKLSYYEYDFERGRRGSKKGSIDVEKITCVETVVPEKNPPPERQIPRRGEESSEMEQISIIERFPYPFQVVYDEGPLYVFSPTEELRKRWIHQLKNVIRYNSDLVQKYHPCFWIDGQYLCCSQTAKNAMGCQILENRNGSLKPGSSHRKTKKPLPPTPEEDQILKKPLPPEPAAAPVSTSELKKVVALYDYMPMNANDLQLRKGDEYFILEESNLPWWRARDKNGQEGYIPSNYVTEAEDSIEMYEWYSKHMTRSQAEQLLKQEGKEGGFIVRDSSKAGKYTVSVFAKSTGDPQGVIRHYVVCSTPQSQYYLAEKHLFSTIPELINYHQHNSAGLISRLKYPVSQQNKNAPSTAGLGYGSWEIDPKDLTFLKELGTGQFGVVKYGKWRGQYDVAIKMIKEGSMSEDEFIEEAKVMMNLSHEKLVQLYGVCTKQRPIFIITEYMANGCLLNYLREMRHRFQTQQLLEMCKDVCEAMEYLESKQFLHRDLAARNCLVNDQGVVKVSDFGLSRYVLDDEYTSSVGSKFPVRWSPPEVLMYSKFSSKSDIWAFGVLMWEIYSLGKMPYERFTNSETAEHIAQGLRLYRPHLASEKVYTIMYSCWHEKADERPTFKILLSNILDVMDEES

Broadly, the IC50 is the concentration that gives 50% inhibition. Low values mean greater potency, high ones weaker potency. For `CC(C)(C)c1nc(C(=O)NCc2ccc(-c3ccnc(NC(=O)C4CC4)c3)cc2C2CC2)no1` [Compound 77, 5-(tert-butyl)-N-(4-(2-(cyclopropanecarboxamido)pyridin-4-yl)-2-cyclopropylbenzyl)-1,2,4-oxadiazole-3-carboxamide], the results for the IC50 against BTK [1] and against BTK [2] were at most 1 nM and 100 to 500 nM, respectively.

Consider `Cc1cc(-c2ccnc(NC(=O)[C@@H]3C[C@@H]3F)c2)ccc1CNC(=O)c1noc(C(C)(C)C)n1` (single isomer, unassigned) [Compound 3], for which the figures for the IC50 on BTK [1] and against BTK [2] were at most 1 nM and at most 100 nM, respectively.

Consider `Cc1cc(-c2ccnc(NC(=O)C3(F)CC3)c2)ccc1CNC(=O)c1noc(C(C)(C)C)n1` [Compound 82, 5-(tert-butyl)-N-(4-(2-(1-fluorocyclopropane-1-carboxamido)pyridin-4-yl)-2-methylbenzyl)-1,2,4-oxadiazole-3-carboxamide], for which the figures for the IC50 at BTK [1] and against BTK [2] were 1 to 10 nM and 500 to 10000 nM, respectively.

For the molecule `Cc1cc(-c2ccnc(NC(=O)C3CC3)c2)ccc1CNC(=O)c1ccn(C(C)(C)C)n1` [Compound 99, 1-(tert-butyl)-N-(4-(2-(cyclopropanecarboxamido)pyridin-4-yl)-2-methylbenzyl)-1H-pyrazole-3-carboxamide], the IC50 at BTK [1] was in the range of 1 to 10 nM; at BTK [2], 500 to 10000 nM.

Turning to `Cc1cc(-c2ccnc(NC(=O)C3CC3)c2)ccc1CNC(=O)c1noc(C(C)(C)CO)n1` [Compound 35, N-(4-(2-(cyclopropanecarboxamido)pyridin-4-yl)-2-methylbenzyl)-5-(1-hydroxy-2-methylpropan-2-yl)-1,2,4-oxadiazole-3-carboxamide], the IC50 at BTK [1] was in the range of 1 to 10 nM; against BTK [2], 500 to 10000 nM.

Consider `Cc1c(CNC(=O)c2noc(C(C)(C)C)n2)cc(F)c(-c2ccnc(NC(=O)C3CC3)c2)c1F` [Compound 61, 5-(tert-butyl)-N-(4-(2-(cyclopropanecarboxamido)pyridin-4-yl)-3,5-difluoro-2-methylbenzyl)-1,2,4-oxadiazole-3-carboxamide], for which the IC50 on BTK [1] was at most 1 nM; against BTK [2], 500 to 10000 nM.

Take `Cc1cc(-c2ccnc(NC(=O)C3CC3)c2F)ccc1CNC(=O)c1noc(C(C)(C)C)n1` [Compound 44, 5-(tert-butyl)-N-(4-(2-(cyclopropanecarboxamido)-3-fluoropyridin-4-yl)-2-methylbenzyl)-1,2,4-oxadiazole-3-carboxamide]: the IC50 is 1 to 10 nM on BTK [1] and 500 to 10000 nM at BTK [2].

Consider `C[C@@H](NC(=O)c1nc(C(C)(C)C)no1)c1ccc(-c2ccnc(NC(=O)C3CC3)c2)cc1Cl` [Compound 91, (R)-3-(tert-butyl)-N-(1-(2-chloro-4-(2-(cyclopropanecarboxamido)pyridin-4-yl)phenyl)ethyl)-1,2,4-oxadiazole-5-carboxamide], for which the IC50 was at most 1 nM at BTK [1] and 100 to 500 nM against BTK [2].

As for `Cc1cc(-c2ccnc(NC(=O)C3CC3(C)C)c2)ccc1CNC(=O)c1noc(C(C)(C)C)n1` (stereo not shown) [Compound 48, 5-(tert-butyl)-N-(4-(2-(2,2-dimethylcyclopropane-1-carboxamido)pyridin-4-yl)-2-methylbenzyl)-1,2,4-oxadiazole-3-carboxamide], the results for the IC50 at BTK [1] and at BTK [2] were 1 to 10 nM and above 10000 nM, respectively.

As for `CC(C)(C)c1noc(C(=O)N[C@@H]2CCCCc3cc(-c4ccnc(NC(=O)[C@@H]5C[C@H]5C#N)c4)ccc32)n1` [Compound 51, 3-(tert-butyl)-N-((R)-2-(2-((1R,2R)-2-cyanocyclopropane-1-carboxamido)pyridin-4-yl)-6,7,8,9-tetrahydro-5H-benzo[7]annulen-5-yl)-1,2,4-oxadiazole-5-carboxamide], the values for the IC50 on BTK [1] and against BTK [2] were at most 1 nM and 100 to 500 nM, respectively.

Regarding `Cc1cc(-c2ccnc(NC(=O)C3CC34CCC4)c2)ccc1CNC(=O)c1noc(C(C)(C)C)n1` (stereo not shown) [Compound 36], the IC50 against BTK [1] is 1 to 10 nM; at BTK [2], above 10000 nM.

On to `Cc1cc(-c2cc(NC(=O)C3CC3)ncc2F)ccc1CNC(=O)c1noc(C(C)(C)C)n1` [Compound 106, 5-(tert-butyl)-N-(4-(2-(cyclopropanecarboxamido)5-fluoropyridin-4-yl)-2-methylbenzyl)-1,2,4-oxadiazole-3-carboxamide], for which the results for the IC50 against BTK [1] and against BTK [2] were at most 1 nM and 500 to 10000 nM, respectively.

For `CC1(c2nc(C(=O)NCc3ccc(-c4ccnc(NC(=O)C5CC5)c4)c(F)c3Cl)no2)CC1` [Compound 59, N-(2-chloro-4-(2-(cyclopropanecarboxamido)pyridin-4-yl)-3-fluorobenzyl)-5-(1-methylcyclopropyl)-1,2,4-oxadiazole-3-carboxamide], the results for the IC50 against BTK [1] and against BTK [2] were at most 1 nM and 500 to 10000 nM, respectively.

In the case of `C[C@@H](NC(=O)c1nc(C(C)(C)C)no1)c1cc(F)c(-c2ccnc(NC(=O)C3CC3)c2)cc1Cl` [Compound 70, (R)-3-(tert-butyl)-N-(1-(2-chloro-4-(2-(cyclopropanecarboxamido)pyridin-4-yl)-5-fluorophenyl)ethyl)-1,2,4-oxadiazole-5-carboxamide], the figures for the IC50 on BTK [1] and against BTK [2] were at most 1 nM and 500 to 10000 nM, respectively.

With `CC(C)(C)c1nc(C(=O)N[C@@H]2CCCOc3cc(-c4ccnc(NC(=O)C5CC5)c4)ccc32)no1` [Compound 54, (R)-5-(tert-butyl)-N-(8-(2-(cyclopropanecarboxamido)pyridin-4-yl)-2,3,4,5-tetrahydrobenzo[b]oxepin-5-yl)-1,2,4-oxadiazole-3-carboxamide], the IC50 on BTK [1] is at most 1 nM; on BTK [2], 100 to 500 nM.

For the molecule `Cc1cc(-c2ccnc(NC(=O)[C@H]3C[C@@H]3F)c2)ccc1CNC(=O)c1noc(C(C)(C)C)n1` [Compound 37, 5-(tert-butyl)-N-(4-(2-((1R,2S)-2-fluorocyclopropane-1-carboxamido)pyridin-4-yl)-2-methylbenzyl)-1,2,4-oxadiazole-3-carboxamide], the IC50 is at most 1 nM against BTK [1] and 500 to 10000 nM against BTK [2].

Consider `CC(C)(C)c1noc(C(=O)NCc2ccc(-c3ccnc(NC(=O)C4CC4)c3)c(F)c2Cl)n1` [Compound 15, 3-(tert-butyl)-N-(2-chloro-4-(2-(cyclopropanecarboxamido)pyridin-4-yl)-3-fluorobenzyl)-1,2,4-oxadiazole-5-carboxamide], for which the IC50 at BTK [1] was at most 1 nM; against BTK [2], at most 100 nM.

With `CC(C)(C)c1noc(C(=O)NCc2ccc(-c3ccnc(NC(=O)C4CC4)c3)c(F)c2C2CC2)n1` [Compound 34, 3-(tert-butyl)-N-(4-(2-(cyclopropanecarboxamido)pyridin-4-yl)-2-cyclopropyl-3-fluorobenzyl)-1,2,4-oxadiazole-5-carboxamide], the IC50 on BTK [1] is at most 1 nM; on BTK [2] it was 500 to 10000 nM.

Take `CC(C)(C)c1nc(C(=O)NCc2ccc(-c3ccnc(NC(=O)C4CC4)c3)c(F)c2C2CC2)no1` [Compound 33, 5-(tert-butyl)-N-(4-(2-(cyclopropanecarboxamido)pyridin-4-yl)-2-cyclopropyl-3-fluorobenzyl)-1,2,4-oxadiazole-3-carboxamide]: the IC50 on BTK [1] was at most 1 nM; on BTK [2], 500 to 10000 nM.

`CC(C)(C)c1noc(C(=O)NC2CCCOc3cc(-c4ccnc(NC(=O)C5CC5)c4)ccc32)n1` (stereo not shown) [Compound 55, 3-(tert-butyl)-N-(8-(2-(cyclopropanecarboxamido)pyridin-4-yl)-2,3,4,5-tetrahydrobenzo[b]oxepin-5-yl)-1,2,4-oxadiazole-5-carboxamide]: the IC50 against BTK [1] is at most 1 nM; on BTK [2] it was 500 to 10000 nM.

With `C[C@@H](NC(=O)c1noc(C(C)(C)C)n1)c1cc(F)c(-c2ccnc(NC(=O)C3CC3)c2)cc1Cl` [Compound 76, (R)-5-(tert-butyl)-N-(1-(2-chloro-4-(2-(cyclopropanecarboxamido)pyridin-4-yl)-5-fluorophenyl)ethyl)-1,2,4-oxadiazole-3-carboxamide], the IC50 is at most 1 nM against BTK [1] and 500 to 10000 nM against BTK [2].

On to `Cc1c(CNC(=O)c2nn(C(C)(C)C)cc2F)ccc(-c2ccnc(NC(=O)C3CC3)c2)c1F` [Compound 31, 1-(tert-butyl)-N-(4-(2-(cyclopropanecarboxamido)pyridin-4-yl)-3-fluoro-2-methylbenzyl)-4-fluoro-1H-pyrazole-3-carboxamide], for which the IC50 was at most 1 nM against BTK [1] and 500 to 10000 nM against BTK [2].

On to `CC(C)(C)c1nc(C(=O)NC2CCCOc3cc(-c4ccnc(NC(=O)C5CC5)c4)ccc32)no1` (stereo not shown) [Compound 65, 5-(tert-butyl)-N-(8-(2-(cyclopropanecarboxamido)pyridin-4-yl)-2,3,4,5-tetrahydrobenzo[b]oxepin-5-yl)-1,2,4-oxadiazole-3-carboxamide], for which the results for the IC50 at BTK [1] and against BTK [2] were at most 1 nM and 100 to 500 nM, respectively.

For the origin of these results see patent US12240838B2, “Inhibiting agents for Bruton's tyrosine kinase” (BIOGEN MA INC., priority 2019, dated 2025).
